Experimental findings from patent US12479843B2, “Spiro ring-containing quinazoline compounds” (WIGEN BIOMEDICINE TECHNOLOGY (SHANGHAI) CO., LTD., priority 2019, dated 2025) are described below.

One test deals with pERK level in H358 cells. The experiment in a line: pERK and ERK protein content assay in H358 cells (ELISA). The class given is cell-based. The note with it: Homo sapiens, NCI-H358, compound 1 μM, 24 h, pERK/ERK ratio compared with DMSO group, read-out: Inhibition rate (%) of pERK level. A digest of the protocol: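 H358 cells grown one day, then treated 24 h with compound at 1 μM. pERK and ERK in lysates measured by ELISA; pERK/ERK ratio expressed as percent inhibition versus DMSO.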

The test system of the next test is H358 cells. Nature of the test: Antiproliferative activity against H358 cells (Cell Titer Glow, ultra-low attachment plate). The class given is cell-based. The note with it: Homo sapiens, NCI-H358, 72 h, 96-well ultra-low attachment plate, three days after addition of compound, Cell Titer Glow. The protocol:
2500 H358 cells were seeded in a 96-well ultra-low attachment plate (corning, 7007). After one day of growth, a serially diluted compound (a maximum concentration of 5 μM, 5-fold dilution, a total of five doses) was added. Three days after the addition of the compound, Cell Titer Glow (Promega, G9681) was added to evaluate pellet growth, and the IC50 value was calculated.
Background: In ATP-based viability assays light output follows the ATP content of the culture.

In general, inhibition refers to the change of the read-out against control, counted positive when it falls. For orientation: IC50 means the midpoint of a concentration-inhibition curve.

A value given as a limit tells only on which side of the number the result lay.

`C=C(F)C(=O)N1CC2(CCN(c3nc(OC4CC5(CCN(CCOC)CC5)C4)nc4c(OCC(F)(F)F)c(-c5c(C)ccc6[nH]ncc56)c(C5CC5)cc34)CC2)C1` [Compound 132]: the inhibition at 1 µM in the test with pERK level in H358 cells is above 90%. In the test with H358 cells, the IC50 was below 300 nM.

Take `C=CC(=O)N1CC2(CCN(c3nc(N4CC(N5CC(S(C)(=O)=O)C5)C4)nc4c(OCC(F)(F)F)c(-c5c(C)ccc6[nH]ncc56)c(C5CC5)cc34)CC2)C1` [Compound 241]: the inhibition at 1 µM in the test with pERK level in H358 cells fell in the range of 50 to 90%. In the test with H358 cells, this compound came in with an IC50 of 300 to 1000 nM.

As for `C=CC(=O)N1CC2(CCN(c3nc(N4CC(N5CC(C)C5)C4)nc4c(OCC(F)(F)F)c(-c5c(C)ccc6[nH]ncc56)c(C5CC5)cc34)CC2)C1` [Compound 237], the inhibition at 1 µM with pERK level in H358 cells is above 90%. This compound registered an IC50 in the test with H358 cells below 300 nM.

For `C=CC(=O)N1CC2(CCN(c3nc(N4CC5(CC(C#N)C5)C4)nc4c(OCC(F)(F)F)c(-c5c(C)ccc6[nH]ncc56)c(C5CC5)cc34)CC2)C1` [Compound 285], the inhibition at 1 µM with pERK level in H358 cells is 50 to 90%. The half-maximal inhibitory concentration (IC50) with H358 cells lay in the range of 300 to 1000 nM.

As to `C=CC(=O)N1CC2(CCN(c3nc(N4CCC5(CN(C)C5)C4)nc4c(OCC(F)(F)F)c(-c5c(C)ccc6[nH]ncc56)c(C5CC5)cc34)CC2)C1` [Compound 97], the inhibition at 1 µM in the test on pERK level in H358 cells lay in the range of 50 to 90%. This compound also had an IC50 in the test on H358 cells of 300 to 1000 nM.

`C=C(F)C(=O)N1CC2(CCN(c3nc(OC4CCC5(CC4)CN(C)C5)nc4c(OCC(F)(F)F)c(-c5c(C)ccc6[nH]ncc56)c(C5CC5)cc34)CC2)C1` [Compound 136]: the inhibition at 1 µM in the test with pERK level in H358 cells was in the range of 50 to 90%. For the same compound, the IC50 in the test with H358 cells is 300 to 1000 nM.

For `C=CC(=O)N1CC2(CCN(c3nc(N4CC5(CC(N6CCC(C)C6)C5)C4)nc4c(OCC(F)(F)F)c(-c5c(C)ccc6[nH]ncc56)c(C5CC5)cc34)CC2)C1` (stereo not drawn) [Compound 292], the inhibition at 1 µM with pERK level in H358 cells was above 90%. The IC50 in the test on H358 cells is below 300 nM.

As for `C=CC(=O)N1CC2(CCN(c3nc(OC4C5CCC4CS(=O)(=O)C5)nc4c(OCC(F)(F)F)c(-c5c(C)ccc6[nH]ncc56)c(C5CC5)cc34)CC2)C1` (stereo not drawn) [Compound 313], the inhibition at 1 µM in the test with pERK level in H358 cells is above 90%. In the test on H358 cells, this compound yielded an IC50 below 300 nM.

On to `C=CC(=O)N1CC2(CCN(c3nc(N4CC[C@H](N5CCC(OC)CC5)C4)nc4c(OCC(F)(F)F)c(-c5c(C)ccc6[nH]ncc56)c(C5CC5)cc34)CC2)C1` [Compound 213], for which the inhibition at 1 µM with pERK level in H358 cells lay in the range of 50 to 90%. The concentration for half-maximal inhibition (IC50) in the test with H358 cells fell in the range of 300 to 1000 nM.

As to `C=CC(=O)N1CC2(CCN(c3nc(N4CC[C@H](N5CCCC5)C4)nc4c(OCC(F)(F)F)c(-c5c(C)ccc6[nH]ncc56)c(C5CC5)cc34)CC2)C1` [Compound 183], the inhibition at 1 µM in the test on pERK level in H358 cells was above 90%. Also, the concentration for half-maximal inhibition (IC50) with H358 cells was below 300 nM.

With `C=C(F)C(=O)N1CC2(CCN(c3nc(OC4CC5(C4)CN(C)C5)nc4c(OCC(F)(F)F)c(-c5c(C)ccc6[nH]ncc56)c(C5CC5)cc34)CC2)C1` [Compound 124], the inhibition at 1 µM with pERK level in H358 cells was above 90%. This compound also displayed an IC50 in the test with H358 cells below 300 nM.

As for `C=CC(=O)N1CC2(CCN(c3nc(N4CC(N5CCC(F)(F)C5)C4)nc4c(OCC(F)(F)F)c(-c5c(C)ccc6[nH]ncc56)c(C5CC5)cc34)CC2)C1` [Compound 176], in the test with pERK level in H358 cells, the inhibition at 1 µM was in the range of 50 to 90%. In the test with H358 cells, this compound came in with a 50% inhibitory concentration (IC50) of 300 to 1000 nM.

Regarding `C=CC(=O)N1CC2(CCN(c3nc(OC4CCN(CCOC)CC4)nc4c(OCC(F)(F)F)c(-c5c(C)ccc6[nH]nnc56)c(C5CC5)cc34)CC2)C1` [Compound 39], the inhibition at 1 µM with pERK level in H358 cells was above 90%. Besides, in the test on H358 cells, the IC50 was below 300 nM.

Turning to `C=CC(=O)N1CC2(CCN(c3nc(N4CC(N5CCCC5)C4)nc4c(OCC(F)(F)F)c(-c5c(C)ccc6[nH]ncc56)c(C5(C)CC5)cc34)CC2)C1` [Compound 323], in the test with pERK level in H358 cells, the inhibition at 1 µM is above 90%. The same compound registered an IC50 in the test with H358 cells below 300 nM.

As for `C=CC(=O)N1CC2(CCN(c3nc(N4CC5(C4)OCC[C@H]5N(C)C)nc4c(OCC(F)(F)F)c(-c5c(C)ccc6[nH]ncc56)c(C5CC5)cc34)CC2)C1` [Compound 281], the inhibition at 1 µM in the test with pERK level in H358 cells is above 90%. The IC50 in the test with H358 cells was below 300 nM.
